Measurements: patent US20240124487A1, “BRANCHED MACROCYCLIC 4-(PYRAZOL-5-YL)-INDOLE DERIVATIVES AS INHIBITORS OF MCL-1” (JANSSEN PHARMACEUTICA NV, priority 2020, published 2024)

What was measured:
[1] = molecular target: Myeloid Cell Leukemia 1 (Mcl-1) (Homo sapiens (Human), UniProt Q07820); assay: Terbium labeled Mcl-1 HTRF binding assay (displacement of Cy5-labeled BIM BH3 peptide); conditions: 25 pM Tb-Mcl-1, 8 nM Cy5 Bim peptide, Ki=IC50/(1+[L]/Kd), [L]=8 nM, Kd=10 nM, read-out: TB-MCL1 Ki
Protocol: Terbium labeled Myeloid Cell Leukemia 1 (Mcl-1) homogeneous time-resolved fluorescence (HTRF) binding assay utilizing the BIM BH3 peptide (H2N-(C/Cy5Mal) WIAQELRRIGDEFN-OH) as the binding partner for Mcl-1.
This assay evaluated inhibition of the BH3 domain: Mcl-1 interaction by measuring the displacement of Cy5-labeled BIM BH3 peptide (H2N—(C/Cy5Mal) WIAQELRRIGDEFN-OH) in the HTRF assay format.
The following assay and stock buffers were prepared for use in the assay: (a) Stock buffer: 10 mM Tris-HCl, pH=7.5+150 mM NaCl, filtered, sterilized, and stored at 4° C.; and (b) 1× assay buffer, where the following ingredients were added fresh to stock buffer: 2 mM dithiothreitol (DTT), 0.0025% Tween-20, 0.1 mg/mL bovine serum albumin (BSA). The 1×Tb-Mcl-1+Cy5 Bim peptide solution was prepared by diluting the protein stock solution using the 1× assay buffer (b) to 25 pM Tb-Mcl-1 and 8 nM Cy5 Bim peptide.
Using the Acoustic ECHO, 100 nL of 100× test compound(s) were dispensed into individual wells of a white 384-well Perkin Elmer Proxiplate, for a final compound concentration of 1× and final DMSO concentration of 1%. Inhibitor control and neutral control (NC, 100 nL of 100% DMSO) were stamped into columns 23 and 24 of assay plate, respectively. Into each well of the plate was then dispensed 10 μL of the 1×Tb-Mcl-1+Cy5 Bim peptide solution. The plate was centrifuged with a cover plate at 1000 rpm for 1 minute, then incubated for 60 minutes at room temperature with plates covered. The TR-FRET signal was read on an BMG PHERAStar FSX MicroPlate Reader at room temperature using the HTRF optic module (HTRF: excitation: 337 nm, light source: laser, emission A: 665 nm, emission B: 620 nm, integration start: 60 μs, integration time: 400 pts).
The BMG PHERAStar FSX MicroPlate Reader was used to measure fluorescence intensity at two emission wavelengths—665 nm and 620 nm—and report relative fluorescence units (RFU) for both emissions, as well as a ratio of the emissions (665 nm/620 nm)*10,000. The RFU values were normalized to percent inhibition as follows:
% inhibition=(((NC−IC)−(compound−IC))/(NC−IC))*100
where IC (inhibitor control, low signal)=mean signal of 1×Tb-MC1-1+Cy5 Bim peptide+inhibitor control or 100% inhibition of Mcl-1; NC (neutral control, high signal)=mean signal 1×Tb-MC1-1+Cy5 Bim peptide with DMSO only or 0% inhibition
An 11-point dose response curve was generated to determine IC50 values (using GenData) based on the following equation:
Y=Bottom+(Top−Bottom)/(1+10^((log IC50−X)*HillSlope))
where Y=% inhibition in the presence of X inhibitor concentration; Top=100% inhibition derived from the IC (mean signal of Mcl-1+inhibitor control); Bottom=0% inhibition derived from the NC (mean signal of Mcl-1+DMSO); Hillslope=Hill coefficient; and IC50=concentration of compound with 50% inhibition in relation to top/neutral control (NC).
In this assay [L]=8 nM and Kd=10 nM
Representative compounds of the present invention were tested according to the procedure as described above, with results as listed in the Table below (n.d. means not determined).

[2] = system: MOLP-8 human multiple myeloma cell line; assay: MOLP8 Caspase-Glo 3/7 apoptosis induction assay; format: cell-based; conditions: MOLP-8 cells, 2 hours incubation at 37° C., averaged values over all runs on all batches
Description: MCL-1 is a regulator of apoptosis and is highly over-expressed in tumor cells that escape cell death. The assay evaluates the cellular potency of small-molecule compounds targeting regulators of the apoptosis pathway, primarily MCL-1, Bfl-1, Bcl-2, and other proteins of the Bcl-2 family. Protein-protein inhibitors disrupting the interaction of anti-apoptotic regulators with BH3-domain proteins initiate apoptosis.
The Caspase-Glo® 3/7 Assay is a luminescent assay that measures caspase-3 and -7 activities in purified enzyme preparations or cultures of adherent or suspension cells. The assay provides a proluminescent caspase-3/7 substrate, which contains the tetrapeptide sequence DEVD. This substrate is cleaved to release aminoluciferin, a substrate of luciferase used in the production of light. Addition of the single Caspase-Glo® 3/7 Reagent in an “add-mix-measure” format results in cell lysis, followed by caspase cleavage of the substrate and generation of a “glow-type” luminescent signal.
This assay uses the MOLP-8 human multiple myeloma cell line, which is sensitive to MCL-1 inhibition.
Materials: • Perkin Elmer Envision • Multidrop 384 and small volume dispensing cassettes • Centrifuge • Countess automated cell counter • Countess counting chamber slides • Assay plate: ProxiPlate-384 Plus, White 384-shallow well Microplate • Sealing tape: Topseal A plus • T175 culture flask
Cell cultures were maintained between 0.2 and 2.0×10^6 cells/mL. The cells were harvested by collection in 50 mL conical tubes. The cells were then pelleted at 500 g for 5 mins before removing supernatant and resuspension in fresh pre-warmed culture medium. The cells were counted and diluted as needed.
The assay reagent was prepared by transferring the buffer solution to the substrate vial and mixing. The solution may be stored for up to 1 week at 4° C. with negligible loss of signal.
Compounds were delivered in assay-ready plates (Proxiplate) and stored at −20° C.
Assays always include 1 reference compound plate containing reference compounds. The plates were spotted with 40 nL of compounds (0.5% DMSO final in cells; serial dilution; 30 μM highest conc. 1/3 dilution, 10 doses, duplicates). The compounds were used at room temperature and 4 μL of pre-warmed media was added to all wells except column 2 and 23. The negative control was prepared by adding 1% DMSO in media. The positive control was prepared by adding the appropriate positive control compound in final concentration of 60 μM in media. The plate was prepared by adding 4 μL negative control to column 23, 4 μL positive control to column 2 and 4 μL cell suspension to all wells in the plate. The plate with cells was then incubated at 37° C. for 2 hours. The assay signal reagent is the Caspase-Glo solution described above, and 8 μL was added to all wells. The plates were then sealed and measured after 30 minutes.
The activity of a test compound was calculated as percent change in apoptosis induction as follows: • LC=median of the Low Control values • =Central Reference in Screener • =DMSO • =0% • HC=Median of the High Control values • =Scale Reference in Screener • =30 μM of positive control • =100% apoptosis induction
% Effect (AC50)=100−((sample−LC)/(HC−LC))*100
% Control=(sample/HC)*100
% Control min=((sample−LC)/(HC−LC))*100

Chain of Myeloid Cell Leukemia 1 (Mcl-1) (Q07820 whole entry): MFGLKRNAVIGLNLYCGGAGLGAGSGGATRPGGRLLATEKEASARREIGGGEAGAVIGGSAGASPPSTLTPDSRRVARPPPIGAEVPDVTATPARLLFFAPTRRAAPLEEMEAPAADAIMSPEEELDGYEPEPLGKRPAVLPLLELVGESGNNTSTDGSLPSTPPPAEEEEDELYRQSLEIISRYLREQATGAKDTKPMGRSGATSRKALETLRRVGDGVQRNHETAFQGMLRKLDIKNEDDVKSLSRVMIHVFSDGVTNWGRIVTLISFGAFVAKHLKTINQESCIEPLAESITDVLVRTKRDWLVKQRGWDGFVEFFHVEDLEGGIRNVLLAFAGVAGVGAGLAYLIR

SMILES | Ki [1] [nM] | AC50 [2] [nM] | AC50 ([2]; Homo sapiens, MOLP-8, 2 h) [nM]
Cc1c(C(=O)O)n2c3ccc(Cl)c(c13)-c1c(nn(C)c1C)C(CC(C)O)OCc1cc(n(C)n1)CCc1cc(c3ccc(F)cc3c1)OCCC2 (single isomer, unassigned) [Compound 20] | 0.023 | 683 | 
Cc1c(C(=O)O)n2c3ccc(Cl)c(c13)-c1c(nn(C)c1C)C(CCN1CCOCC1)OCc1cc(n(C)n1)CCc1cc(c3ccc(F)cc3c1)OCCC2 (single isomer, unassigned) [Compound 7] | 0.011 |  | 149
Cc1nn2c3c1-c1c(Cl)ccc4c1c(C)c(C(=O)O)n4CCCOc1cc(cc4cc(F)ccc14)CCc1cc(nn1C)CCC3OCC2 (stereo not shown) [Compound 27] |  | 8.5 | 
COCCn1nc2cc1CCc1cc(c3ccc(F)cc3c1)OCCCn1c(C(=O)O)c(C)c3c(c(Cl)ccc31)-c1c(C)nn3c1C(CC2)OCC3 (stereo not shown) [Compound 31] |  |  | 48.6
Cc1c(C(=O)O)n2c3ccc(Cl)c(c13)-c1c(nn(C)c1C)C(CCN1CCN(C)CC1)OCc1cc(n(C)n1)CCc1cc(c3ccc(F)cc3c1)OCCC2 (single isomer, unassigned) [Compound 8] | 0.013 |  | 1160
Cc1c(C(=O)O)n2c3ccc(Cl)c(c13)-c1c(nn(C)c1C)C(C)OCc1cc(n(C)n1)CCc1cc(c3ccc(F)cc3c1)OCCC2 (single isomer, unassigned) [Compound 17] | 0.042 | 129 | 
CNCCC1OCc2cc(n(C)n2)CCc2cc(c3ccc(F)cc3c2)OCCCn2c(C(=O)O)c(C)c3c(c(Cl)ccc32)-c2c1nn(C)c2C (stereo not shown) [Compound 26] | 3.61 |  | > 30
Cc1c(C(=O)O)n2c3ccc(Cl)c(c13)-c1c(nn(C)c1C)C(CCO)OCc1cc(n(C)n1)CCc1cc(c3ccc(F)cc3c1)OCCC2 (stereo not shown) [Compound 6] | 0.009 |  | 52.7
Cc1c(C(=O)O)n2c3ccc(Cl)c(c13)-c1c(nn(C)c1C)C(CCCO)OCc1cc(n(C)n1)CCc1cc(c3ccc(F)cc3c1)OCCC2 (single isomer, unassigned) [Compound 10] | 0.028 | 1060 | 
Cc1nn2c3c1-c1c(Cl)ccc4c1c(C)c(C(=O)O)n4CCCOc1cc(cc4cc(F)ccc14)CCc1cc(nn1C)CCC3OCC2 (stereo not shown) [Compound 29] | 0.302 | 146 | 
COc1ccc(COC2CCc3cc(n(C)n3)CCc3cc(c4ccc(F)cc4c3)OCCCn3c(C(=O)O)c(C)c4c(c(Cl)ccc43)-c3c2nn(C)c3C)cc1 (single isomer, unassigned) [Compound 23] | 0.073 | 169 | 
COCCn1nc2cc1CCc1cc(c3ccc(F)cc3c1)OCCCn1c(C(=O)O)c(C)c3c(c(Cl)ccc31)-c1c(C)nn3c1C(CC2)OCC3 (stereo not shown) [Compound 34] | 0.408 | 889 | 
COCC1OCc2cc(n(C)n2)CCc2cc(c3ccc(F)cc3c2)OCCCn2c(C(=O)O)c(C)c3c(c(Cl)ccc32)-c2c1nn(C)c2C (single isomer, unassigned) [Compound 16] | 0.104 | 230 | 
CCOCCC1OCc2cc(n(C)n2)CCc2cc(c3ccc(F)cc3c2)OCCCn2c(C(=O)O)c(C)c3c(c(Cl)ccc32)-c2c1nn(C)c2C (single isomer, unassigned) [Compound 9] | 0.009 |  | 43.6
COCCC1OCc2cc(n(C)n2)CCc2cc(c3ccc(F)cc3c2)OCCCn2c(C(=O)O)c(C)c3c(c(Cl)ccc32)-c2c1nn(C)c2C (single isomer, unassigned) [Compound 3] | 0.039 | 154 | 
Cc1c(C(=O)O)n2c3ccc(Cl)c(c13)-c1c(nn(C)c1C)C(CN1CCOCC1)OCc1cc(n(C)n1)CCc1cc(c3ccc(F)cc3c1)OCCC2 (single isomer, unassigned) [Compound 13] | 0.058 |  | 1370
COCCOCCn1nc(C)c2c1C(C)OCc1cc(n(C)n1)CCc1cc(c3ccc(F)cc3c1)OCCCn1c(C(=O)O)c(C)c3c-2c(Cl)ccc31 (stereo not shown) [Compound 21] | 0.057 | 318 | 
C=CC1OCc2cc(n(C)n2)CCc2cc(c3ccc(F)cc3c2)OCCCn2c(C(=O)O)c(C)c3c(c(Cl)ccc32)-c2c1nn(C)c2C (single isomer, unassigned) [Compound 1] | 0.059 | 101 | 
Cc1c(C(=O)O)n2c3ccc(Cl)c(c13)-c1c(nn(C)c1C)C(CC(C)O)OCc1cc(n(C)n1)CCc1cc(c3ccc(F)cc3c1)OCCC2 (single isomer, unassigned) [Compound 19] | 0.057 |  | 1210
Cc1nn2c3c1-c1c(Cl)ccc4c1c(C)c(C(=O)O)n4CCCOc1cc(cc4cc(F)ccc14)CCc1cc(nn1C)CCC3OCC2 (stereo not shown) [Compound 28] |  | > 30 | 
Cc1c(C(=O)O)n2c3ccc(Cl)c(c13)-c1c(nn(C)c1C)C(C)OCc1cc(n(C)n1)CCc1cc(c3ccc(F)cc3c1)OCCC2 (single isomer, unassigned) [Compound 18] | 0.01 | 35.4 | 
Cc1nn2c3c1-c1c(Cl)ccc4c1c(C)c(C(=O)O)n4CCCOc1cc(cc4cc(F)ccc14)CCc1cc(nn1C)CCC3OCC2 (stereo not shown) [Compound 30] |  | 52.8 | 
